In ChEMBL document CHEMBL1151149, “Antineoplastic agents, 107. Isolation of acteoside and isoacteoside from Castilleja linariaefolia” (1990) one finds EC50 data, which are given here for two molecules.

Values after ≈ are worked out from the molar mass of the structure shown.

This test deals with P388. The test is described as follows: Cytotoxicity against mouse P388 cells. Format: functional. The settings on record: read-out: ED50 (the source's name).

As to `C[C@@H]1O[C@@H](O[C@@H]2[C@@H](O)[C@H](OCCc3ccc(O)c(O)c3)O[C@H](CO)[C@H]2OC(=O)/C=C/c2ccc(O)c(O)c2)[C@H](O)[C@H](O)[C@H]1O` [ACETOSIDE], the EC50 came out at 2.6 µg/mL (≈ 4.16 µM).

Turning to `C[C@@H]1O[C@@H](O[C@@H]2[C@@H](O)[C@H](OCCc3ccc(O)c(O)c3)O[C@H](COC(=O)/C=C/c3ccc(O)c(O)c3)[C@H]2O)[C@H](O)[C@H](O)[C@H]1O` [ISOACTEOSIDE], the EC50 came out at 10 µg/mL (≈ 16 µM).
